Laboratory results: PubChem BioAssay (NCI)
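Growth conditions: 96-well plates. Treatment: test compound, 48 hours, 5 concentrations. Analysis: linear interpolation between bracketing concentrations; unreached endpoints set to highest concentration. GI50 is the concentration that inhibits growth by half. TGI: concentration producing complete growth inhibition.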

Columns and labels:
Test in all cases: inhibition of tumour cell growth, NCI panel, 48 h
COLO 205 colon = tested on: COLO 205 colon
U251 CNS = tested on: U251 CNS
OVCAR-3 ovarian = tested on: OVCAR-3 ovarian
UACC-257 melanoma = tested on: UACC-257 melanoma
PC-3 prostate = tested on: PC-3 prostate
A498 renal = tested on: A498 renal
RXF 393 renal = tested on: RXF 393 renal
SNB-75 CNS = tested on: SNB-75 CNS
IGROV1 ovarian = tested on: IGROV1 ovarian
NCI/ADR-RES ovarian = tested on: NCI/ADR-RES ovarian
SNB-19 CNS = tested on: SNB-19 CNS
MDA-MB-435 = tested on: MDA-MB-435
NCI-H522 lung = tested on: NCI-H522 lung
MOLT-4 leukemia = tested on: MOLT-4 leukemia
HT29 colon = tested on: HT29 colon
SF-268 CNS = tested on: SF-268 CNS
SR leukemia = tested on: SR leukemia
HCT-116 colon = tested on: HCT-116 colon
SF-539 CNS = tested on: SF-539 CNS
SK-MEL-28 melanoma = tested on: SK-MEL-28 melanoma
LOX IMVI melanoma = tested on: LOX IMVI melanoma
RPMI-8226 leukemia = tested on: RPMI-8226 leukemia
SK-OV-3 ovarian = tested on: SK-OV-3 ovarian
CCRF-CEM leukemia = tested on: CCRF-CEM leukemia
HOP-92 NSCLC = tested on: HOP-92 NSCLC
K-562 leukemia = tested on: K-562 leukemia
HOP-62 NSCLC = tested on: HOP-62 NSCLC
KM12 colon = tested on: KM12 colon

## CN(C)CCCOc1ccc(OCCCN(C)C)c2c1C(=O)c1ccccc1C2=O
COLO 205 colon
  GI50: 0.379 µM
  TGI: 1.82 µM
U251 CNS
  GI50: 0.682 µM
  TGI: 9.02 µM
OVCAR-3 ovarian
  GI50: 1.93 µM
  TGI: 8.26 µM
UACC-257 melanoma
  GI50: 2.38 µM
  TGI: 5.42 µM
PC-3 prostate
  GI50: 1.48 µM
  TGI: 5.15 µM
A498 renal
  GI50: 1.38 µM
  TGI: 3.32 µM
RXF 393 renal
  GI50: 1.32 µM
  TGI: 3.69 µM
SNB-75 CNS
  GI50: 1.51 µM
  TGI: 3.72 µM
IGROV1 ovarian
  GI50: 1.78 µM
  TGI: 14.2 µM
NCI/ADR-RES ovarian
  GI50: 33.6 µM
  TGI: > 100 µM
SNB-19 CNS
  GI50: 0.941 µM
  TGI: 10 µM
MDA-MB-435
  GI50: 1.59 µM
  TGI: 3.19 µM
NCI-H522 lung
  GI50: 0.381 µM
  TGI: 2.21 µM
MOLT-4 leukemia
  GI50: 0.378 µM
  TGI: 5.99 µM
HT29 colon
  GI50: 0.382 µM
  TGI: 3.58 µM
SF-268 CNS
  GI50: 1.32 µM
  TGI: 7.28 µM
SR leukemia
  GI50: 0.524 µM
  TGI: 5.05 µM
HCT-116 colon
  GI50: 0.379 µM
  TGI: 10.3 µM
SF-539 CNS
  GI50: 1.57 µM
  TGI: 4.11 µM
SK-MEL-28 melanoma
  GI50: 2.01 µM
  TGI: 4.45 µM
LOX IMVI melanoma
  GI50: 0.81 µM
  TGI: 10.2 µM
RPMI-8226 leukemia
  GI50: 2.05 µM
  TGI: 6.55 µM
SK-OV-3 ovarian
  GI50: 0.988 µM
  TGI: 4.74 µM
CCRF-CEM leukemia
  GI50: 0.93 µM
  TGI: 6.95 µM
HOP-92 NSCLC
  GI50: 0.572 µM
  TGI: 4.13 µM
K-562 leukemia
  GI50: 0.706 µM
  TGI: 6.42 µM
HOP-62 NSCLC
  GI50: 0.634 µM
  TGI: 3.54 µM
KM12 colon
  GI50: 0.961 µM
  TGI: 10.6 µM
